Results as given in US12240854B2, “TRAF 6 inhibitors” (Helmholtz Zentrum München - Deutsches Forschungszentrum für …, priority 2018, dated 2025).
Entries after “also recorded” stand apart in the source; their conditions may differ.

What was measured:
[1] = tested on: primary murine CD4+ T-cells; assay: Primary mouse CD4+ T-cells, CD3/CD28 stimulation (qRT-PCR, ELISA); type: cell-based; settings: primary naive CD4+ T-cells
Protocol: For MEF cells, 1.2×10^5 cells per sample were seeded, treated with compound for 6 hours and stimulated with either IL-1β or TNFα for 60 minutes. […] RNA was isolated according to the manufacturer's protocol of the Qiagen RNeasy Kit (MEF cells) or the STRATEC INVITRAP® SPIN UNIVERSAL RNA MINI KIT (Jurkat T-cells). The isolation of mRNA from […] white adipose tissue from DIO mice was performed using TRIzol® Reagent according to manufacturer's instruction. To clear the isolated RNA from genomic DNA, samples (up to 5 μg RNA) were treated with RQ1 RNase-Free DNaseI (Promega) as described in the technical manual. […] For quantification of cDNA in the samples, the LightCylcer480 (Roche) and the KAPA SYBR FAST qPCR Kit were used. For relative quantification, the ΔΔCp method first described by Pfaffl (Pfaffl, M. W., A new mathematical model for relative quantification in real-time RT-PCR. Nucleic Acids Res, 2001. 29(9): p. e45) was applied. […]
For measurement of cytokine secretion, 2×10^5 Jurkat T-cells or primary CD4^+ T-cells or human PBMCs per sample were seeded, treated with compound for 6 hours and stimulated as indicated. 20 hours after stimulation, supernatants were harvested and analyzed with the IL-2, IL-1β and TNFα Ready-Set-Go! […]

ITCH = target: T1, ITCH (Homo sapiens, UniProt Q96J02); assay: In vitro ubiquitination assay, ITCH ubiquitin ligase kit; type: biochemical
T1 construct: purchased Boston Biochem
Protocol: For analysis of cIAP1, MDM2, TRIM63, RNF4, ITCH and E6AP mediated poly-ubiquitination, the respective ubiquitin ligase kit from Boston Biochem (K-102, K-260, K-200B, K-220, K-240 and K-270) was used. Here, reaction buffer, E1, E2 and E3 enzyme (and p53 substrate in case of MDM2) were mixed and pre-incubated with compound or DMSO for 5 minutes at room temperature before adding Mg^2+-ATP and mono-ubiquitin for reaction start. Ubiquitination was visualized by Western Blot analyses.

[2] = target: T2, Interaction of Ubc13 with Uev1a (Homo sapiens, UniProt P61088+Q13404); assay: Ubc13-Uev1a interaction (FIG. 2E); type: binding
T2 construct: GST (N); His; made in house

[3] = tested on: TRAF6 auto-ubiquitination in Jurkat T-cells; assay: Immunoprecipitation of TRAF6 for endogenous ubiquitination, Jurkat T-cells; type: cell-based, human; settings: PMA/Ionomycin
[4] = ADME: plasma protein binding; type: in vitro ADME
Protocol: (§1) All ADME (plasma stability, plasma protein binding, microsomal stability, Log D, Caco-2 assay, CYP450 inhibition and hERG predictor assay) as well as pharmacokinetic studies (Tmax, Cmax, AUC0-240min, Mean Residence Time, Elimination half life, Elimination rate constant, Volume of Distribution and Clearance) of C25-140 (compound 3) were conducted by Bienta Enamine Biology Services of Bienta/Enamine Ltd.

ADME: plasma stability = type: in vitro ADME
Protocol: as §1

HepG2 cells = assay: CellTiter-Glo viability assay, HepG2 cells; type: cell-based; settings: 6 or 24 hours incubation
Protocol: For cell viability experiments using the CellTiter-Glo® 2.0 system (Promega), MEF cells (1.2×10^3 cells/well), HepG2 cells (4×10^3 cells/well) and Jurkat T-cells (5×10^3 cells/well) were seeded in 384 well plates. After 18 hours, cells were treated with compounds using the Sciclone G3 automation system. After 6 or 24 hours incubation, the luciferase measurement was performed according to the manufacturer's manual.

TRAF6 RZ1 protein = target: T3, TRAF6 RZ1 protein (Homo sapiens, UniProt Q9Y4K3); assay: Two-dimensional NMR (SOFAST-HMQC) binding experiment; settings: protein:compound 1:5
T3 construct: GST (N, cleaved yes); made in house; host or cells: E. coli BL21 codon plus RIPL, M9 medium with 15NH4
Protocol: To determine whether the inhibitory compounds directly bind to TRAF6 rather than to Ubc13, 2D-NMR experiments were conducted. Untagged ^15N-labeled TRAF6 RZ1 protein (c=120 μM) and compound (c=20 mM) were incubated at a ratio of 1:5 in a 3 mm NMR tube for 10 minutes before spectra acquisition. To observe chemical shift perturbations upon compound addition, two-dimensional SOFAST-HMQC spectra were acquired. All measurements were performed using the Bruker Avance 600 MHz spectrometer.

[5] = Pharmacokinetic studies (IV, PO, IP); type: in vivo
Protocol: as §1
The inventors also tested the pharmacokinetics (PK) of C25-140 after intravenous (IV), peroral (PO) and intraperitoneal (IP) injection of each 10 mg/kg compound. All the analyzed data are summarized in FIG. 9B and the concentration/time-course graph for IP administration is shown in FIG. 9C.

CYP450 = assay: ADME: CYP450 inhibition; type: in vitro ADME
Protocol: as §1

T1 sequence (Q96J02 whole entry): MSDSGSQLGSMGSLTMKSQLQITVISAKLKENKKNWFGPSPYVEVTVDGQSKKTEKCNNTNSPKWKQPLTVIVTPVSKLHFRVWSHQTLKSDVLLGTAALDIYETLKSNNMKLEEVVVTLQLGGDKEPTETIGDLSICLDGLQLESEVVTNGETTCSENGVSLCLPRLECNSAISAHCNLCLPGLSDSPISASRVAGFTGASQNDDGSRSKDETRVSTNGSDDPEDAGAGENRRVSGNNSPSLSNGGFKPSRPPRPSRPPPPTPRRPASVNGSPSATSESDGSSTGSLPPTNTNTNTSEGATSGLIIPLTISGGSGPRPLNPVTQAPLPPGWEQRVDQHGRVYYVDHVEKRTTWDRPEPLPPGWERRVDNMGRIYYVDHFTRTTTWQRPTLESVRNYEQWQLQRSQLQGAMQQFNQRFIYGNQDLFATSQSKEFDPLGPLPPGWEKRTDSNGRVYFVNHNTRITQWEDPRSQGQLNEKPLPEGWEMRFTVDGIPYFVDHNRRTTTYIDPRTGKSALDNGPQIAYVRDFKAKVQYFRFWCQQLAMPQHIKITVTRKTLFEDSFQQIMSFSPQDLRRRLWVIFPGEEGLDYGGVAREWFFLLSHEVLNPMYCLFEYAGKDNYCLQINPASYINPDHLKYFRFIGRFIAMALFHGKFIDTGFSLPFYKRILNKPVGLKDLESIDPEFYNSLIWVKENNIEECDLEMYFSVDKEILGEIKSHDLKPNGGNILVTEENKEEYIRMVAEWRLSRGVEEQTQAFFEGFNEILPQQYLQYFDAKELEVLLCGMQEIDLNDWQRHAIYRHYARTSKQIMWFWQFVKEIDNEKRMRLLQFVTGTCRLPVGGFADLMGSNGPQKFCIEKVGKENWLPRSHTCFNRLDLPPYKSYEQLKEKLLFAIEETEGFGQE
T3 sequence (Q9Y4K3 with tags, fused parts or gaps): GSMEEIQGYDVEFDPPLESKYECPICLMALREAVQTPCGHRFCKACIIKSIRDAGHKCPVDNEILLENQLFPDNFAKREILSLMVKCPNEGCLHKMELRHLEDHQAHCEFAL
T2 sequence (P61088 with tags, fused parts or gaps): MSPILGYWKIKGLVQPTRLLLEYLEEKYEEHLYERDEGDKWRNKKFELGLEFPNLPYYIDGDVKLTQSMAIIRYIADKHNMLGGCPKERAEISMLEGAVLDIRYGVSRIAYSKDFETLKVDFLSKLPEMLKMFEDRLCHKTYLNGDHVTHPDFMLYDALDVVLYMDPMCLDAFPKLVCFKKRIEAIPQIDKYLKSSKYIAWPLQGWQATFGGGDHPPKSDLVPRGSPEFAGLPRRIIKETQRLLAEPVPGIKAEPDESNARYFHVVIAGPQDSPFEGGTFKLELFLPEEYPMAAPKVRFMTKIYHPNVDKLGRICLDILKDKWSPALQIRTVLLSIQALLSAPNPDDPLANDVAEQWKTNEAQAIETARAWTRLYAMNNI
T2 sequence (Q13404 with tags, fused parts or gaps isoform Q13404-7): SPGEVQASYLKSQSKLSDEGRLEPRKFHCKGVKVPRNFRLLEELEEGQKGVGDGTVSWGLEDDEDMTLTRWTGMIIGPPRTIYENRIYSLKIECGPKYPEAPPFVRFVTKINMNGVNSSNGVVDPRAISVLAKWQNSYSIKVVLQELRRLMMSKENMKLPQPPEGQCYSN

Question: For `Cc1nn(-c2ccc3nnc(C)n3n2)c(C)c1CCC(=O)N1CCC(Cc2ccccc2)CC1` [Example C25-140, 1-(4-Benzylpiperidin-1-yl)-3-(3,5-dimethyl-1-(3-methyl-[1,2,4]-triazolo-[4,3-b]-pyridazin-6-yl)-1H-pyrazol-4-yl)-propan-1-one], which “IL-2 mRNA expression” value [1] is on record?
Answer: The value was “impaired”.

Question: And the IL-2 protein secretion [1]?
Answer: Its IL-2 protein secretion is “counteracted; also recorded: impaired”.

Question: What about the ITCH auto-ubiquitination (ITCH) of the same compound?
Answer: The ITCH auto-ubiquitination was “not influenced; also recorded: not affected”.

Question: What about the “interaction of Ubc13 with Uev1a” value [2] of the same compound?
Answer: The value was “did not affect binding; also recorded: not affected”.

Question: And the “TRAF6 auto-ubiquitination upon TCR stimulation” value [3]?
Answer: Its value is “dose-dependently diminished; also recorded: dose-dependently reduced”.

Question: What about the plasma protein binding [4] of the same compound?
Answer: The plasma protein binding was “decent good plasma protein binding capacity”.

Question: And the plasma stability (ADME: plasma stability)?
Answer: Its plasma stability is “stable”.

Question: And the “metabolic activity and cell viability” value (HepG2 cells)?
Answer: The value was “did not considerably impact cell viability; also recorded: does not considerably affect metabolic activity and cell viability up to 50 μM; also recorded: at the highest dose of 100 μM toxicity is noticeable”.

Question: And the “direct binding to TRAF6 RZ1 protein (shifting or disappearing of NMR peaks)” value (TRAF6 RZ1 protein)?
Answer: Its value is “directly binds to the TRAF6 protein”.

Question: And the “adverse effects on animals during the PK studies” value ([5]; 10 mg/kg IV, PO, IP)?
Answer: The value was “no obvious adverse effects”.

Question: And the “in vivo half life (in words)” value ([5]; IV, PO, IP)?
Answer: The value was “moderate in vivo half life”.

Question: What about the “initial distribution phase (in words)” value ([5]; IV, PO, IP) of the same compound?
Answer: Its value is “rapid initial distribution phase”.

Question: What about the “bioavailability (in words)” value ([5]; in vivo) of the same compound?
Answer: The value was “good bioavailability”.

Question: And the CYP450 inhibition (CYP450)?
Answer: Its CYP450 inhibition is “some inhibitory potential on selected CYPs”.
